Common to all, as to assay type: functional, cell-based
A short description of assay [1]: Cytotoxicity against human vincristine-sensitive KB/S cells.
Assay [2] can be described thus: Cytotoxicity against human vincristine-resistant KB/VJ300 cells.
Assay [3] is described as follows: Cytotoxicity against human vincristine-resistant KB/VJ300 cells in presence of vincristine.

Structures are written as SMILES. ≈ marks a conversion by molar mass, not a printed value. Where only a bound is given, the exact number is not on record here.

As to `CCOC(=O)O[C@H](C)[C@H]1CN2CC[C@]34C(=C(C(=O)OC)[C@H]1C[C@H]23)Nc1ccccc14` [ALSTOLUCINE A], the IC50 in assay [1] was more than 25 µg/mL; in assay [2] it was more than 25 µg/mL; in assay [3], 0.59 µg/mL.
`COC(=O)C1=C2Nc3ccccc3[C@@]23CCN2C[C@H]([C@H](C)O)[C@@H]1C[C@H]23`: the IC50 in assay [1] was more than 25 µg/mL; in assay [2], more than 25 µg/mL; in assay [3], 8.35 µg/mL.
As for `COC(=O)C1=C2Nc3c(O)cccc3[C@@]23CCN2C[C@H](C(C)=O)[C@@H]1C[C@H]23` [ALSTOLUCINE E], the IC50 was more than 25 µg/mL in assay [1], more than 25 µg/mL in assay [2] and 19.2 µg/mL in assay [3].
`C/C=C1/CN2CC[C@]34C(=C(C(=O)O)[C@H]1C[C@H]23)Nc1ccccc14` [VINERVINE]: the IC50 in assay [1] is more than 25 µg/mL; in assay [2] it was more than 25 µg/mL; in assay [3], 12.1 µg/mL.
Take `COC(=O)C1=C2Nc3c(OC)cccc3[C@@]23CCN2C[C@H]([C@@H](C)O)[C@@H]1C[C@H]23`: the IC50 is more than 25 µg/mL in assay [1], more than 25 µg/mL in assay [2] and 10.6 µg/mL in assay [3].
`COC(=O)C1=C2Nc3ccccc3[C@@]23CCN2C[C@@H](C(C)=O)[C@@H]1C[C@H]23` [ALSTOLUCINE B]: the results for the concentration for half-maximal inhibition (IC50) in assay [1], in assay [2] and in assay [3] were more than 25 µg/mL, more than 25 µg/mL and 0.64 µg/mL, respectively.
As for `COC(=O)C1=C2Nc3ccccc3[C@@]23CCN2C[C@H](C(C)=O)[C@@H]1C[C@H]23` [ALSTOLUCINE F], the IC50 in assay [1] is more than 25 µg/mL; in assay [2], more than 25 µg/mL; in assay [3] it was 2.61 µg/mL.
`C=C[C@@]12CNCC[C@@H]1[C@](C(=O)OC)(c1cc3ccccc3[nH]1)CO2`: the half-maximal inhibitory concentration (IC50) in assay [1], in assay [2] and in assay [3] was more than 25 µg/mL each time.
Turning to `COC(=O)C1=C2Nc3c(O)cccc3[C@@]23CCN2C[C@@H]([C@H](C)O)[C@@H]1C[C@H]23` [SCHOLARICINE], the IC50 in assay [1] is more than 25 µg/mL; in assay [2], 13.3 µg/mL (≈ 37.5 µM); in assay [3], 1.15 µg/mL.
`COC(=O)C1=C2Nc3ccccc3[C@@]23CCN2C[C@H]([C@@H](C)O)[C@@H]1C[C@H]23`: the half-inhibitory concentration (IC50) in assay [1] was more than 25 µg/mL; in assay [2] it was more than 25 µg/mL; in assay [3], 5.12 µg/mL.
For the compound `COC(=O)C1=C2Nc3ccccc3[C@@]23CC[N+]2([O-])C[C@@H](C(C)=O)[C@@H]1C[C@@H]32` (some centres not stated) [ALSTOLUCINE C], the 50% inhibitory concentration (IC50) in assay [1], in assay [2] and in assay [3] was more than 25 µg/mL each time.
On to `COC(=O)C1=C2Nc3c(O)cccc3[C@@]23CCN2C[C@@H](C(C)=O)[C@@H]1C[C@H]23` [ALSTOLUCINE D], for which the concentration for half-maximal inhibition (IC50) in assay [1] is more than 25 µg/mL; in assay [2], more than 25 µg/mL; in assay [3], 10.3 µg/mL.
In the case of `C/C=C1/CN2CC[C@]34C(=C(C(=O)OC)[C@H]1C[C@H]23)Nc1ccccc14` [AKUAMMICINE], the results for the IC50 in assay [1], in assay [2] and in assay [3] were more than 25 µg/mL, more than 25 µg/mL and 12.3 µg/mL, respectively.
On to `C=C[C@@]12CN(C(=O)OCC)CC[C@@H]1[C@](C(=O)OC)(c1cc3ccccc3[nH]1)CO2` [ALSTOLOBINE A], for which the IC50 was more than 25 µg/mL in assay [1], more than 25 µg/mL in assay [2] and 3.51 µg/mL in assay [3].

The term IC50 denotes the concentration at which inhibition is half-maximal.

(Values after ChEMBL document CHEMBL1649345, “Strychnan and secoangustilobine A type alkaloids from Alstonia spatulata. Revision of the C-20 configuration of scholaricine” (J Nat Prod, 2010).)
